Assay results from the NIST ThermoML archive (doi:10.1021/je2013704).
Numbers after ± are expanded uncertainties.

Test: mn = molality of the nth substance listed, in mol/kg
Settings: Liquid, Vibrating tube method

[Cl-].[K+] [potassium chloride] + O
mass density [kg/m3]
Settings | 298.12 K | 323.07 K | 348.04 K | 372.99 K | 397.97 K | 422.94 K | 447.94 K | 472.96 K
900 kPa, m1 = 1.06 | 1044.2 ± 0.09 | 1034.14 ± 0.08 | 1020.74 ± 0.08 | 1004.76 ± 0.07 | 986.31 ± 0.08 | 965.57 ± 0.09 | 942.89 ± 0.11 | –
900 kPa, m1 = 3.15 | 1124.07 ± 0.14 | 1112.58 ± 0.13 | 1098.82 ± 0.13 | 1083.32 ± 0.12 | 1065.9 ± 0.11 | 1046.73 ± 0.11 | 1025.62 ± 0.11 | –
900 kPa, m1 = 4.49 | 1168.21 ± 0.17 | 1156.09 ± 0.17 | 1142.21 ± 0.16 | 1126.88 ± 0.15 | 1109.9 ± 0.14 | 1091.46 ± 0.14 | 1071.39 ± 0.13 | –
9900 kPa, m1 = 1.06 | 1047.96 ± 0.11 | 1037.83 ± 0.1 | 1024.46 ± 0.09 | 1008.64 ± 0.08 | 990.53 ± 0.08 | 970.25 ± 0.1 | 948.08 ± 0.13 | 923.68 ± 0.16
9900 kPa, m1 = 3.15 | 1127.47 ± 0.2 | 1115.91 ± 0.18 | 1102.28 ± 0.17 | 1086.89 ± 0.16 | 1069.71 ± 0.14 | 1050.87 ± 0.13 | 1030.11 ± 0.12 | 1007.94 ± 0.11
9900 kPa, m1 = 4.49 | 1171.42 ± 0.25 | 1159.3 ± 0.24 | 1145.43 ± 0.22 | 1130.26 ± 0.21 | 1113.48 ± 0.19 | 1095.41 ± 0.18 | 1075.5 ± 0.17 | 1054.54 ± 0.16
19900 kPa, m1 = 1.06 | 1052.02 ± 0.13 | 1041.82 ± 0.12 | 1028.51 ± 0.1 | 1012.91 ± 0.09 | 995.11 ± 0.08 | 975.13 ± 0.11 | 953.62 ± 0.14 | 929.93 ± 0.19
19900 kPa, m1 = 3.15 | 1131.16 ± 0.26 | 1119.53 ± 0.25 | 1105.97 ± 0.23 | 1090.74 ± 0.2 | 1073.82 ± 0.18 | 1055.23 ± 0.16 | 1034.96 ± 0.14 | 1013.25 ± 0.12
19900 kPa, m1 = 4.49 | 1174.92 ± 0.34 | 1162.77 ± 0.32 | 1148.98 ± 0.3 | 1133.92 ± 0.28 | 1117.4 ± 0.26 | 1099.54 ± 0.23 | 1080.06 ± 0.21 | 1059.47 ± 0.19
29900 kPa, m1 = 1.06 | 1056.08 ± 0.17 | 1045.67 ± 0.15 | 1032.5 ± 0.12 | 1017.11 ± 0.1 | 999.53 ± 0.07 | 979.97 ± 0.11 | 958.88 ± 0.15 | 935.86 ± 0.21
29900 kPa, m1 = 3.15 | 1134.81 ± 0.34 | 1123.11 ± 0.31 | 1109.59 ± 0.29 | 1094.53 ± 0.26 | 1077.73 ± 0.23 | 1059.51 ± 0.19 | 1039.57 ± 0.16 | 1018.38 ± 0.13
29900 kPa, m1 = 4.49 | 1178.38 ± 0.44 | 1166.16 ± 0.41 | 1152.52 ± 0.38 | 1137.58 ± 0.35 | 1121.12 ± 0.32 | 1103.53 ± 0.29 | 1084.38 ± 0.26 | 1064.17 ± 0.23
39900 kPa, m1 = 1.06 | 1060 ± 0.2 | 1049.58 ± 0.18 | 1036.42 ± 0.15 | 1021.1 ± 0.11 | 1003.82 ± 0.08 | 984.63 ± 0.11 | 963.97 ± 0.16 | 941.62 ± 0.22
39900 kPa, m1 = 3.15 | 1138.35 ± 0.41 | 1126.71 ± 0.38 | 1113.24 ± 0.35 | 1098.25 ± 0.31 | 1081.65 ± 0.27 | 1063.66 ± 0.23 | 1044.09 ± 0.19 | 1023.39 ± 0.15
39900 kPa, m1 = 4.49 | 1181.79 ± 0.53 | 1169.63 ± 0.5 | 1155.93 ± 0.47 | 1141.11 ± 0.43 | 1124.86 ± 0.39 | 1107.49 ± 0.35 | 1088.62 ± 0.31 | 1068.85 ± 0.27
49900 kPa, m1 = 1.06 | 1063.86 ± 0.24 | 1053.35 ± 0.21 | 1040.18 ± 0.17 | 1025.08 ± 0.13 | 1008.02 ± 0.09 | 989.18 ± 0.1 | 968.88 ± 0.16 | 947.07 ± 0.24
49900 kPa, m1 = 3.15 | 1141.9 ± 0.49 | 1130.16 ± 0.46 | 1116.68 ± 0.42 | 1101.91 ± 0.37 | 1085.49 ± 0.32 | 1067.79 ± 0.28 | 1048.45 ± 0.23 | 1028.19 ± 0.18
49900 kPa, m1 = 4.49 | 1185.09 ± 0.63 | 1172.93 ± 0.6 | 1159.38 ± 0.56 | 1144.58 ± 0.51 | 1128.56 ± 0.46 | 1111.34 ± 0.42 | 1092.74 ± 0.37 | 1073.32 ± 0.32
59900 kPa, m1 = 1.06 | 1067.62 ± 0.29 | 1057.01 ± 0.25 | 1043.91 ± 0.21 | 1028.91 ± 0.16 | 1012.1 ± 0.11 | 993.52 ± 0.09 | 973.66 ± 0.16 | 952.36 ± 0.24
59900 kPa, m1 = 3.15 | 1145.28 ± 0.57 | 1133.6 ± 0.53 | 1120.15 ± 0.49 | 1105.38 ± 0.43 | 1089.26 ± 0.38 | 1071.77 ± 0.32 | 1052.77 ± 0.26 | 1032.84 ± 0.21
59900 kPa, m1 = 4.49 | 1188.28 ± 0.74 | 1176.14 ± 0.69 | 1162.56 ± 0.65 | 1147.95 ± 0.59 | 1132.08 ± 0.54 | 1115.08 ± 0.48 | 1096.73 ± 0.43 | 1077.68 ± 0.37
68400 kPa, m1 = 1.06 | 1070.84 ± 0.33 | 1060.07 ± 0.29 | 1047.14 ± 0.24 | 1032.17 ± 0.18 | 1015.46 ± 0.12 | 997.11 ± 0.08 | 977.57 ± 0.16 | 956.79 ± 0.25
68400 kPa, m1 = 3.15 | 1148.2 ± 0.65 | 1136.35 ± 0.6 | 1123.07 ± 0.55 | 1108.37 ± 0.49 | 1092.3 ± 0.43 | 1075 ± 0.36 | 1056.27 ± 0.3 | 1036.57 ± 0.23
68400 kPa, m1 = 4.49 | 1191.12 ± 0.83 | 1178.8 ± 0.78 | 1165.39 ± 0.73 | 1150.77 ± 0.67 | 1135 ± 0.61 | 1118.18 ± 0.54 | 1100.1 ± 0.48 | 1081.18 ± 0.42
